Assay results published in PubChem BioAssay AID1963967 (Molecular Pharmacology Branch, DTP, NCI, 2024).

Tested on: 855422-203-R-J1-PDC spheroids with HUVEC/MSC, viability
Experiment: Anticancer human tumor 855422-203-R-J1-PDC patient-derived bladder carcinoma cell line growth inhibition [PI3K]
Settings: for IC50: curve of first compound; for viability, T/C: stronger effect = lower value
Excerpt: Combinatorial screen of targeted agents with the PI3K inhibitors inavolisib, alpelisib, duvelisib, and copanlisib in multi-cell type tumor spheroids
A high-throughput screen of multi-cell type tumor spheroids was designed to identify active combinations of targeted small molecules and PI3K pathway inhibitors. Complex spheroids include a stromal component modeled by human endothelial cells (HUVEC) and fibroblasts modeled by human mesenchymal stem cells (MSCs). The concentration ranges selected for each drug and investigational agent were based upon clinically achievable concentrations if the clinical Cmax of the agent was known.
Compounds. The drugs and investigational agents: inavolisib (NSC800729), alpelisib (NSC765974), duvelisib (NSC772469), copanlisib (NSC816437), ipatasertib (NSC767898), afuresertib (NSC778305), talazoparib (NSC767125), sapanisertib (NSC764658), selumetinib (NSC741078), tovorafenib (DAY101, NSC766906), vemurafenib (NSC761431), ravoxertinib (NSC781343), sotorasib (NSC818433), MRTX1133 (NSC 836407), abemaciclib (NSC 768073), palbociclib (NSC758247), venetoclax (NSC 766270), SY5609 (NSC837396), enzalutamide (NSC755605), and darolutamide (NSC825331), were obtained from the National Cancer Institute (NCI) Developmental Therapeutics Program Chemical Repository. The FDA-approved anticancer drug set is available from the NCI Developmental Therapeutics Program. […] The stock solutions were prepared in dimethyl sulfoxide (DMSO, Sigma-Aldrich, St. Louis, MO, cat. D2650) at 800-fold the tested concentration and stored at -70 degrees C prior to their use. All drugs and investigational agents were tested over a range starting from a high concentration at or near the clinical Cmax and decreasing in half-log increments. If the clinical Cmax for an agent had not been determined, the highest concentration tested was 10 microM.
Cell Culture. All cells were maintained in an incubator at 37 degrees C and 5% CO2 with 95% humidity. The PDC lines were cultured according to standard operating procedures established by the NCI PDMR (https://pdmr.cancer.gov/sops/default.htm). All PDCs were thawed and cultured in Matrigel-coated flasks prepared with a working solution of 1X Ham's F-12 nutrient mix, without supplementation (Invitrogen, Waltham, MA, cat. 11765054), 100 U/mL penicillin-streptomycin (Invitrogen, cat. 15140122), and 2.5% Matrigel (Corning Inc., Corning, NY, cat. 354248) for the first three passages. The 354836-022-R-J1-PDC, 475296-252-R-J1-PDC, and 997726-040-R-J2-PDC lines were cultured in 6A media, which includes advanced DMEM/F-12 (Thermo Fisher Scientific, cat. 12634028), 10 mM HEPES (Thermo Fisher Scientific, cat. 15630080), 1X GlutaMAX supplement (Thermo Fisher Scientific, cat. 35050061), 0.1 mg/mL primocin (InvivoGen, San Diego, CA, cat. ant-pm-2), 10% defined fetal bovine serum, heat inactivated (HyClone Laboratories Inc., Logan, UT, cat. SH30070.03HI), 50% L-WRN conditioned media (ATCC, cat. CRL-3276), 1.25 mM N-Acetyl-L-cysteine (Sigma-Aldrich, cat. A9165), 10 mM nicotinamide (Sigma-Aldrich, cat. N0636), 1X B-27 supplement (Thermo Fisher Scientific, cat. 17504044), 1X N-2 supplement (Thermo Fisher Scientific, cat. 17502048), and 10 microM Y-27632 dihydrochloride (Tocris Bioscience, Bristol, United Kingdom, cat. 1254). The 624824-186-R-J2-PDC line was cultured in 6C/Colon 1B media, which includes all 6A media components plus 50 ng/mL human EGF recombinant protein (Thermo Fisher Scientific, cat. PHG0311). […]

[1] = second compound 0.0316 µM, first compound 0.000316 µM
[2] = second compound 0.0316 µM, first compound 0.001 µM
[3] = second compound 0.0316 µM, first compound 0.00316 µM
[4] = second compound 0.0316 µM, first compound 0.01 µM
[5] = second compound 0.0316 µM, first compound 0.0316 µM
[6] = second compound 0.0316 µM, first compound 0.1 µM
[7] = second compound 0.1 µM, first compound 0.000316 µM
[8] = second compound 0.1 µM, first compound 0.001 µM
[9] = second compound 0.1 µM, first compound 0.00316 µM
[10] = second compound 0.1 µM, first compound 0.01 µM
[11] = second compound 0.1 µM, first compound 0.0316 µM
[12] = second compound 0.1 µM, first compound 0.1 µM
[13] = second compound 0.316 µM, first compound 0.000316 µM
[14] = second compound 0.316 µM, first compound 0.001 µM
[15] = second compound 0.316 µM, first compound 0.00316 µM
[16] = second compound 0.316 µM, first compound 0.01 µM
[17] = second compound 0.316 µM, first compound 0.0316 µM
[18] = second compound 0.316 µM, first compound 0.1 µM
[19] = second compound 1 µM, first compound 0.000316 µM
[20] = second compound 1 µM, first compound 0.001 µM
[21] = second compound 1 µM, first compound 0.00316 µM
[22] = second compound 1 µM, first compound 0.01 µM
[23] = second compound 1 µM, first compound 0.0316 µM
[24] = second compound 1 µM, first compound 0.1 µM
[25] = second compound 3.16 µM, first compound 0.000316 µM
[26] = second compound 3.16 µM, first compound 0.001 µM
[27] = second compound 3.16 µM, first compound 0.00316 µM
[28] = second compound 3.16 µM, first compound 0.01 µM
[29] = second compound 3.16 µM, first compound 0.0316 µM
[30] = second compound 3.16 µM, first compound 0.1 µM
[31] = second compound 10 µM, first compound 0.000316 µM
[32] = second compound 10 µM, first compound 0.001 µM
[33] = second compound 10 µM, first compound 0.00316 µM
[34] = second compound 10 µM, first compound 0.01 µM
[35] = second compound 10 µM, first compound 0.0316 µM
[36] = second compound 10 µM, first compound 0.1 µM
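Note: agents incubated with spheroids for one week before read-out.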
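Throughout, for viability, T/C: 100% = DMSO vehicle-treated control wells.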

CC(C)n1nc(-c2ccc3oc(N)nc3c2)c2c(N)ncnc21 + CC(Nc1ncnc2nc[nH]c12)c1cc2cccc(Cl)c2c(=O)n1-c1ccccc1
IC50 (second compound 0.0316 µM): 50.8 nM
IC50 (second compound 0.1 µM): 50.2 nM
IC50 (second compound 0.316 µM): 46.5 nM
IC50 (second compound 1 µM): 38.7 nM
IC50 (second compound 3.16 µM): 33.4 nM
IC50 (second compound 10 µM): 17.3 nM
viability, T/C [1]: 111%
viability, T/C [2]: 97.1%
viability, T/C [3]: 121%
viability, T/C [4]: 98.6%
viability, T/C [5]: 74.3%
viability, T/C [6]: 15.9%
viability, T/C [7]: 110%
viability, T/C [8]: 108%
viability, T/C [9]: 107%
viability, T/C [10]: 98.1%
viability, T/C [11]: 74%
viability, T/C [12]: 14.4%
viability, T/C [13]: 100%
viability, T/C [14]: 106%
viability, T/C [15]: 102%
viability, T/C [16]: 99.3%
viability, T/C [17]: 69.1%
viability, T/C [18]: 12.1%
viability, T/C [19]: 110%
viability, T/C [20]: 91.2%
viability, T/C [21]: 100%
viability, T/C [22]: 96.9%
viability, T/C [23]: 57.6%
viability, T/C [24]: 14.1%
viability, T/C [25]: 95%
viability, T/C [26]: 91%
viability, T/C [27]: 93.9%
viability, T/C [28]: 78.7%
viability, T/C [29]: 52.2%
viability, T/C [30]: 12.9%
viability, T/C [31]: 81.5%
viability, T/C [32]: 81%
viability, T/C [33]: 80.3%
viability, T/C [34]: 59%
viability, T/C [35]: 38.2%
viability, T/C [36]: 13.6%

CC(C)n1nc(-c2ccc3oc(N)nc3c2)c2c(N)ncnc21 + Cc1nc(NC(=O)N2CCCC2C(N)=O)sc1-c1ccnc(C(C)(C)C(F)(F)F)c1
IC50 (second compound 0.0316 µM): 49.5 nM
IC50 (second compound 0.1 µM): 42.8 nM
IC50 (second compound 0.316 µM): 33.1 nM
IC50 (second compound 1 µM): 11.1 nM
IC50 (second compound 3.16 µM): < 0.316 nM
IC50 (second compound 10 µM): < 0.316 nM
viability, T/C [1]: 85.8%
viability, T/C [2]: 86.9%
viability, T/C [3]: 106%
viability, T/C [4]: 87.6%
viability, T/C [5]: 70.7%
viability, T/C [6]: 17.8%
viability, T/C [7]: 105%
viability, T/C [8]: 88.5%
viability, T/C [9]: 97.2%
viability, T/C [10]: 82.8%
viability, T/C [11]: 63.6%
viability, T/C [12]: 14.7%
viability, T/C [13]: 68.4%
viability, T/C [14]: 87.6%
viability, T/C [15]: 87.4%
viability, T/C [16]: 75.1%
viability, T/C [17]: 51.8%
viability, T/C [18]: 12.3%
viability, T/C [19]: 67.5%
viability, T/C [20]: 66.9%
viability, T/C [21]: 55.9%
viability, T/C [22]: 51.4%
viability, T/C [23]: 37.8%
viability, T/C [24]: 8.4%
viability, T/C [25]: 42.5%
viability, T/C [26]: 44.7%
viability, T/C [27]: 35.8%
viability, T/C [28]: 34.1%
viability, T/C [29]: 20.5%
viability, T/C [30]: 5.68%
viability, T/C [31]: 22.9%
viability, T/C [32]: 19.3%
viability, T/C [33]: 20.3%
viability, T/C [34]: 16.2%
viability, T/C [35]: 11.9%
viability, T/C [36]: 3.12%

Cn1ncc(Cl)c1-c1cc(C(=O)NC(CN)Cc2cccc(F)c2)sc1Cl (stereo unspecified) + Cc1nc(NC(=O)N2CCCC2C(N)=O)sc1-c1ccnc(C(C)(C)C(F)(F)F)c1
IC50 (second compound 0.0316 µM): 1020 nM
IC50 (second compound 0.1 µM): 1160 nM
IC50 (second compound 0.316 µM): 893 nM
IC50 (second compound 1 µM): 637 nM
IC50 (second compound 3.16 µM): < 31.6 nM
IC50 (second compound 10 µM): < 31.6 nM
viability, T/C [5]: 100%
viability, T/C [6]: 78%
viability, T/C (second compound 0.0316 µM, first compound 0.316 µM): 71%
viability, T/C (second compound 0.0316 µM, first compound 1 µM): 50.1%
viability, T/C (second compound 0.0316 µM, first compound 3.16 µM): 32.6%
viability, T/C (second compound 0.0316 µM, first compound 10 µM): 9.93%
viability, T/C [11]: 89.6%
viability, T/C [12]: 77.6%
viability, T/C (second compound 0.1 µM, first compound 0.316 µM): 71.8%
viability, T/C (second compound 0.1 µM, first compound 1 µM): 50.9%
viability, T/C (second compound 0.1 µM, first compound 3.16 µM): 32.9%
viability, T/C (second compound 0.1 µM, first compound 10 µM): 9.68%
viability, T/C [17]: 89.3%
viability, T/C [18]: 74.6%
viability, T/C (second compound 0.316 µM, first compound 0.316 µM): 64.8%
viability, T/C (second compound 0.316 µM, first compound 1 µM): 52.4%
viability, T/C (second compound 0.316 µM, first compound 3.16 µM): 25.8%
viability, T/C (second compound 0.316 µM, first compound 10 µM): 7.56%
viability, T/C [23]: 64.8%
viability, T/C [24]: 65.3%
viability, T/C (second compound 1 µM, first compound 0.316 µM): 55.5%
viability, T/C (second compound 1 µM, first compound 1 µM): 46.5%
viability, T/C (second compound 1 µM, first compound 3.16 µM): 21.3%
viability, T/C (second compound 1 µM, first compound 10 µM): 3.26%
viability, T/C [29]: 46.9%
viability, T/C [30]: 43%
viability, T/C (second compound 3.16 µM, first compound 0.316 µM): 41.9%
viability, T/C (second compound 3.16 µM, first compound 1 µM): 31.4%
viability, T/C (second compound 3.16 µM, first compound 3.16 µM): 13.9%
viability, T/C (second compound 3.16 µM, first compound 10 µM): 2.81%
viability, T/C [35]: 25.8%
viability, T/C [36]: 23.4%
viability, T/C (second compound 10 µM, first compound 0.316 µM): 20.3%
viability, T/C (second compound 10 µM, first compound 1 µM): 16.3%
viability, T/C (second compound 10 µM, first compound 3.16 µM): 9.69%
viability, T/C (second compound 10 µM, first compound 10 µM): 0.43%
